Measurements as given in ChEMBL document CHEMBL1201862, “PubChem BioAssay data set” (2004).
The source made the active and inactive calls.

What was measured:
[1] = A549 cell cytotoxicity, dose response, cytotoxicity control, cherry-picks, 26 µM top dose (AID 1053119); assay type: functional, cell-based
[2] = biological target: T1, Sentrin-specific protease 8 (Homo sapiens, UniProt Q96LD8); assay type: functional
T1 sequence (Q96LD8 whole entry): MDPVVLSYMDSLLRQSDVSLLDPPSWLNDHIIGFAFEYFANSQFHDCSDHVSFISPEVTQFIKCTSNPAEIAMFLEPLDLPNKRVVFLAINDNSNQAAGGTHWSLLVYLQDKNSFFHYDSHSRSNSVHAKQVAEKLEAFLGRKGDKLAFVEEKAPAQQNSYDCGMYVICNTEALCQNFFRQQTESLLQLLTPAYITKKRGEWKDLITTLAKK

[3] = biological target: T2, Polyadenylate-binding protein 1 (Homo sapiens, UniProt P11940); experiment: PABP1 MLLE–PAM2 binding inhibitor potency, dose response, biochemical, fluorescence polarization, FITC-PAM2 peptide (AID 602259); assay type: functional; conditions: read-out: IC50_Mean
Caspase-3 = biological target: T3, Caspase-3 (Homo sapiens, UniProt P42574); experiment: Dose-response confirmation of uHTS inhibitor hits of Sentrin-Specific Protease 8 in a Caspase-3 Fluorescence assay.; assay type: functional
T3 sequence (P42574 whole entry): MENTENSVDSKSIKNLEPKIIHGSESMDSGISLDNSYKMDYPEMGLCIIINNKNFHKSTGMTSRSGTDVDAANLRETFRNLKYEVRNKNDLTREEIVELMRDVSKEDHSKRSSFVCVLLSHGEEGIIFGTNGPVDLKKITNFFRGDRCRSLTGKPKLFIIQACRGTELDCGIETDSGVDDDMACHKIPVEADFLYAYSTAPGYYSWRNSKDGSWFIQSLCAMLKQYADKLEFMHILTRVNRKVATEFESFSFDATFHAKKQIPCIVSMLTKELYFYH

[4] = biological target: T2, Polyadenylate-binding protein 1; experiment: PABP1 MLLE–PAM2 interaction inhibitors, dose response, miRNA deadenylation inhibitor project, biochemical, fluorescence polarization, Cy5-PAM2 peptide, secondary (AID 602260); assay type: functional; conditions: read-out: IC50_Mean
[5] = biological target: T1, Sentrin-specific protease 8; assay type: functional; remark: listed apart in the source
[6] = HEK293 cell cytotoxicity, dose response, cytotoxicity control, cherry-picks, set 5 (AID 1053117); assay type: functional, cell-based
[7] = HepG2 cell cytotoxicity, dose response, cytotoxicity control, cherry-picks, set 5 (AID 1053118); assay type: functional, cell-based
[8] = human group III sPLA2 inhibitors, dose response, biochemical, QFRET, IC50 (AID 743457);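 further: green fluorescence rise as the enzyme cleaves BODIPY PC-A2 in liposomes; potency for inhibition of the enzyme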
[9] = biological target: T4, Corticotropin-releasing factor receptor 2/Corticotropin-releasing factor-binding protein (Homo sapiens, UniProt P24387+Q13324); experiment: Dose Response confirmation of uHTS hits for small molecule antagonists of the CRF-binding protein and CRF-R2 receptor complex.; assay type: functional; conditions: read-out: IC50_Mean
T4 sequence (Q13324 whole entry): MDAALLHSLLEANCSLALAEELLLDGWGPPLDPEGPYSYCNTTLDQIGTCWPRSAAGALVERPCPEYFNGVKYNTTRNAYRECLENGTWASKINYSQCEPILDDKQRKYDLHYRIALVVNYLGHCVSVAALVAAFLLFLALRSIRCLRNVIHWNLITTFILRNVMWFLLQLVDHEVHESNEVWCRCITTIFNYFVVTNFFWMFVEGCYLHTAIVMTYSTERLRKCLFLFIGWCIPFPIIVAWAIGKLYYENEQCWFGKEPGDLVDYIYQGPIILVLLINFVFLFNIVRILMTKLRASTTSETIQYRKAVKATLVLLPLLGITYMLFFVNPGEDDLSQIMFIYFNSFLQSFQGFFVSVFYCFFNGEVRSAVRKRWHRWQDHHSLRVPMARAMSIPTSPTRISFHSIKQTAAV
T4 sequence (P24387 whole entry): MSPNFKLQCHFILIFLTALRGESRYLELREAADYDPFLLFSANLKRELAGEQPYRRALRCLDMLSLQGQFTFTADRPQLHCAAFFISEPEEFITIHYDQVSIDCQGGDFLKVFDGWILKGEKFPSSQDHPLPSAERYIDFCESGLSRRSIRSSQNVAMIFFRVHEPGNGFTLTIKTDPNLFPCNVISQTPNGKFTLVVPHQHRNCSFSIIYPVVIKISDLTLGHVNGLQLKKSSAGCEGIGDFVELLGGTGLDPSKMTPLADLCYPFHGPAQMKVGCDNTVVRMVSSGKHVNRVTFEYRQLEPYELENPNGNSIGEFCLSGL

[10] = biological target: T4, Corticotropin-releasing factor receptor 2/Corticotropin-releasing factor-binding protein; experiment: activators of CRF receptor 2 with binding protein – uHTS hits, confirmation (AID 602473); assay type: functional; conditions: read-out: EC50_Mean
[11] = CRF-BP/CRF-R2 complex antagonists, dose response, cell-based, uHTS hits, 384-well (AID 651639); assay type: functional, Homo sapiens; conditions: read-out: IC50_Mean
SN12K1 = experiment: cells; assay type: functional; conditions: Homo sapiens
P388 = experiment: cells; assay type: functional; conditions: Mus musculus
[12] = HEK293T cell viability, dose response, counter-screen for EBV LMP1 inhibitor project, CellTiter-Glo luminescence, dry powder (AID 624372); assay type: functional, HEK293
P388/ADR = experiment: cells; assay type: functional; conditions: Mus musculus
[13] = cytotoxicity toward NIH3T3 fibroblasts, dose response, counter-screen, cell-based, ATP luminescence, mouse fibroblasts (AID 2010); assay type: functional;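 further: cells exposed to compound for about 90 hours before reading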
[14] = biological target: T5, Trace amine-associated receptor 1 (Homo sapiens, UniProt Q96RJ0); experiment: Counterscreen for antagonists of the human trace amine associated receptor 1 (hTAAR1): Fluorescence-based cell-based high throughput dose response assay to identify TAAR1 Agonists.; assay type: functional
T5 sequence (Q96RJ0 whole entry): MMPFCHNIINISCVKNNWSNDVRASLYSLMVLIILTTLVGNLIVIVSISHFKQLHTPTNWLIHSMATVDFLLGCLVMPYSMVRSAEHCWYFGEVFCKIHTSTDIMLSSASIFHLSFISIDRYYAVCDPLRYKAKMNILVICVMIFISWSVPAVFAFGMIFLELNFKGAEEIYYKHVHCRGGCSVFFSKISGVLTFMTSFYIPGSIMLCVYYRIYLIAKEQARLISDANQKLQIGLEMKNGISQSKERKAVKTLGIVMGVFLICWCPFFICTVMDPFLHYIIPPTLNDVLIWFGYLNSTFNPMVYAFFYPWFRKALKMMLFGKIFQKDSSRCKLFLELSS

[15] = Counterscreen for […] of the human trace amine associated receptor 1 (TAAR1): Fluorescence-based cell-based high throughput dose response assay to identify nonselective Ga16 agonists.; assay type: functional
[16] = Counterscreen for antagonists of the human trace amine associated receptor 1 (hTAAR1): Fluorescence-based cell-based high throughput dose response assay to identify nonselective Ga16 antagonists.; assay type: functional
[17] = inhibitors of intracellular T. cruzi replication, confirmation, NIH3T3 host cells, beta-gal luminescence (AID 2044); assay type: functional, cell-based;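 further: intracellular parasites grown in NIH/3T3 mouse fibroblasts as host cells; luminescent beta-galactosidase reporter signal from transgenic T. cruzi replicating inside host cells; inhibitors lower the luminescence signal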
[18] = biological target: T5, Trace amine-associated receptor 1; experiment: Fluorescence-based cell-based high throughput dose response assay to identify antagonists of the human trace amine associated receptor 1 (TAAR1).; assay type: functional

T2 sequence (P11940 whole entry): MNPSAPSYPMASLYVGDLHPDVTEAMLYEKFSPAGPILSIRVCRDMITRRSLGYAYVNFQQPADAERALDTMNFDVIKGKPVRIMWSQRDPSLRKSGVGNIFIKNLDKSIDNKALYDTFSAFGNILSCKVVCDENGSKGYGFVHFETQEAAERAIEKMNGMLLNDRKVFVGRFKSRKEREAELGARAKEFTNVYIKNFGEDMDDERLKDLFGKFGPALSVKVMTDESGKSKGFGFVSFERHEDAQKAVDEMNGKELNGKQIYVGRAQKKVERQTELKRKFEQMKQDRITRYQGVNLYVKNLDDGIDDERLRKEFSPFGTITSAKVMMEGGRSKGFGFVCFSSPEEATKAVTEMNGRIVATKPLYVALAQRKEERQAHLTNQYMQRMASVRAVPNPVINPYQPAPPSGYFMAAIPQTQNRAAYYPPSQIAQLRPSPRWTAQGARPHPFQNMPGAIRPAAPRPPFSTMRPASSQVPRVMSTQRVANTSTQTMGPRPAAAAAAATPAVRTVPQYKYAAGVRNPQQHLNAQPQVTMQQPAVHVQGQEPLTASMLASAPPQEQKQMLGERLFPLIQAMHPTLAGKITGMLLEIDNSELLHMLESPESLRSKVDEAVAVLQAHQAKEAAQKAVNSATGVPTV

**Q.** Which AC50 [1] does the source give for `CN(C)C(=O)c1ccc(-c2ccc3c(c2)[C@H]2[C@H](CCN2C(=O)c2ccc(F)cc2)[C@H](CO)N3C)cc1` here?
**A.** 43.6 µM (active)

**Q.** Which IC50 [2] does the source give for `Cc1ccc(N2C(=O)[C@@H]3[C@H](C2=O)C2c4ccccc4C=CN2[C@@H]3C(=O)c2ccco2)cc1` (some centres not stated) here?
**A.** 5.38 µM (active)

**Q.** And the IC50 [3]?
**A.** > 66 µM (inactive)

**Q.** And the IC50 (Caspase-3)?
**A.** 4.41 µM (active)

**Q.** What about the IC50 [4] of the same molecule?
**A.** > 66 µM (inactive)

**Q.** What about the IC50 [5] of the same molecule?
**A.** 0.785 µM (active)

**Q.** For `C[C@@H]1CN([C@@H](C)CO)C(=O)c2cc(-c3ccccc3)cnc2O[C@H]1CN(C)Cc1ccccc1`, which AC50 [6] is on record?
**A.** > 52 µM (inactive)

**Q.** And the AC50 [7]?
**A.** > 52 µM (inactive)

**Q.** For `Cc1cccc(NC(=O)NNC(=O)c2ccc3ccccc3c2O)c1`, which IC50 [8] is on record?
**A.** > 122 µM (inactive)

**Q.** For `COC(=O)C1=C/C=C\CN(C(c2ccccc2)c2ccccc2)/C=C\1C(=O)OC`, which IC50 [9] is on record?
**A.** 5.7 µM (active)

**Q.** What about the EC50 [10] of the same molecule?
**A.** > 53 µM (inactive)

**Q.** And the IC50 [11]?
**A.** > 20 µM (inactive)

**Q.** With `C/C(=N\NC(=S)N1CCN(C2CCCCCC2)CC1)c1ccccn1` as the molecule, how does the GI50 (SN12K1) read?
**A.** 0.01 µM (active)

**Q.** And the GI50 (P388)?
**A.** < 0.01 µM (active)

**Q.** And the AbsAC35 [12]?
**A.** 162.11 µM

**Q.** What about the GI50 (P388/ADR) of the same molecule?
**A.** < 0.01 µM (active)

**Q.** For `CN(CC(=O)Nc1cccc(F)c1)C(=O)c1ccccc1OCC(=O)Nc1cccc(C(F)(F)F)c1`, which EC50 [13] is on record?
**A.** > 60 µM (not active)

**Q.** What about the EC50 [14] of the same molecule?
**A.** > 29.9 µM (inactive)

**Q.** And the EC50 [15]?
**A.** > 29.9 µM (inactive)

**Q.** And the IC50 [16]?
**A.** 13.5 µM (inactive)

**Q.** What about the EC50 [17] of the same molecule?
**A.** 0.775 µM (active)

**Q.** And the IC50 [18]?
**A.** 6.89 µM (active)
